# According to patent US20240279221A1, “HETEROCYCLIC COMPOUNDS AND METHODS OF USE” (Schrödinger, Inc., priority 2021, published 2024):
# Molecular target: SOS1:KRAS (G12C) interaction (Homo sapiens (Human), UniProt Q07889)
# Assay: SOS1-KRas(G12C) FRET Assay
# Assay type: binding
# Conditions: 0.5 nM His10-SOS1 (res. 564-1049), 2.5 nM GST-KRAS (res. 1-169, G12C); read-out: SOS-KRas(G12C) FRET IC50
# Experimental: Inhibition of the SOS1:KRAS interaction was measured using purified GST-tagged KRAS (res. 1-169, G12C, purified based on Hillig, et al., Proc Natl Acad Sci USA (2019); 116(7):2551-2560) and recombinant His10-SOS1 (res. 564-1049; purified based on Hillig, et al.). The final assay was performed at 20 uL with 0.5 nM SOS1 protein and 2.5 nM KRAS protein in a buffer of PBS, 0.1% BSA, 5 mM MgCl2, 0.0025% Igepal, 100 mM KF, 5 mM DTT in a white 384 square well OptiPlate (PerkinElmer, Cat. 6007290). A 2× KRAS working solution was prepared in an assay buffer containing 5 nM GST-KRAS G12C and 2 nM anti-GST-Eu(K) (Cisbio, Cat. 61GSTKLA) and pre-incubated for 15 minutes at 25° C. Compounds were serially diluted in 100% DMSO from 2 mM (positive control, compound I-13, PCT Publ. No. WO2018/115380) or 20 mM and then diluted 1:20 in assay buffer before incubation with a solution of SOS1 protein mixed 1:5 with anti-6His-XL665 FRET donor (Cisbio, Cat. 61HISXL) for 15 minutes at 25° C. before addition of 2× KRAS working solution. The final DMSO concentration is 0.5%. Plates were incubated at RT for 2 hrs before the FRET signal was measured using Envision at emission 665 nm and 615 nm. FRET signal was converted to percentage of protein-protein interaction using the following equation:
# [formula] • C: signal with compound treatment • P: signal for positive control (DMSO) • N: signal for negative control (no SOS1 added) • IC50 and Hill coefficients were obtained using Graph Pad Prism (Graph Pad software, Inc, USA) with non-linear regression analysis.
# Sequence of SOS1:KRAS (G12C) interaction (Q07889 564-1049, stated change not applied): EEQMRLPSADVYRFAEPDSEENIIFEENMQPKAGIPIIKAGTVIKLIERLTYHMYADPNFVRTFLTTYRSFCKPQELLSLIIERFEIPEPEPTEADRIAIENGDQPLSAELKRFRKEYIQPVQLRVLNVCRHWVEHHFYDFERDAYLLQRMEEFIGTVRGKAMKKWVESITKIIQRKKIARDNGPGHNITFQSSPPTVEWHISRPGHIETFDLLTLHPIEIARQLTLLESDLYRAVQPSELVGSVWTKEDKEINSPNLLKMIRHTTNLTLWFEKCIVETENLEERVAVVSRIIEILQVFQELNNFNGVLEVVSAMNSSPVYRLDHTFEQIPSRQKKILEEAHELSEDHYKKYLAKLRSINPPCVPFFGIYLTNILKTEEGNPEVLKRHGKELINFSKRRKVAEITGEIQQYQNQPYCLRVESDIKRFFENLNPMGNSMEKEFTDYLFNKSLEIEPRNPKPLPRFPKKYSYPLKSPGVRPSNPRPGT
row,SMILES,IC50 [nM]
1,"Cc1c([C@@H](C)Nc2nn(C)c(=O)c3cc(=O)n([C@H]4C[C@@H]4c4cncc(F)c4)cc23)cccc1C(F)(F)F (single isomer, unassigned) [Example 91]",97.4
2,"C[C@@H](Nc1nn(C)c(=O)c2cc(=O)n(C3(C)CC(F)(F)C3)cc12)c1cccc(C(F)F)c1F [Example 134, (R)-6-(3,3-difluoro-1-methylcyclobutyl)-4-((1-(3-(difluoromethyl)-2-fluorophenyl)ethyl)amino)-2-methyl-2,6-dihydropyrido[3,4-d]pyridazine-1,7-dione]",282
3,"C[C@@H](Nc1nn(C)c(=O)c2cc(=O)n(C3(C(F)F)CC3)cc12)c1cccc2cccn12 [Example 114, (R)-6-(1-(difluoromethyl)cyclopropyl)-4-((1-(indolizin-5-yl)ethyl)amino)-2-methyl-2,6-dihydropyrido[3,4-d]pyridazine-1,7-dione]",2060
4,"Cc1cc([C@@H](C)Nc2nn(C)c(=O)c3cc(=O)n(C4CC4)cc23)cc(C(F)(F)F)c1 [Example 118, 6-cyclopropyl-2-methyl-4-[[(1R)-1-[3-methyl-5-(trifluoromethyl)phenyl]ethyl]amino]pyrido[3,4-d]pyridazine-1,7-dione]",> 10000
5,"C[C@@H](Nc1nn(C)c(=O)c2cc(=O)n(C3CC3)cc12)c1cccc(C(F)(F)C(=O)N(C)C)c1F [Example 106, (R)-2-(3-(1-((6-cyclopropyl-2-methyl-1,7-dioxo-1,2,6,7-tetrahydropyrido[3,4-d]pyridazin-4-yl)amino)ethyl)-2-fluorophenyl)-2,2-difluoro-N,N-dimethylacetamide]",366
6,"C[C@@H](Nc1nn(C)c(=O)c2c(OC3CC(F)(F)C3)c(=O)n(C3(C(F)F)CC3)cc12)c1cccc(C(F)F)c1F [Example 87, (R)-8-(3,3-difluorocyclobutoxy)-4-((1-(3-(difluoromethyl)-2-fluorophenyl)ethyl)amino)-6-(1-(difluoromethyl)cyclopropyl)-2-methylpyrido[3,4-d]pyridazine-1,7(2H,6H)-dione]",118
7,"C[C@@H](Nc1nn(C)c(=O)c2cc(=O)n([C@H]3CC34CC4)cc12)c1cccc(C(F)F)c1F (single isomer, unassigned) [Example 129]",112
8,"Cn1nc(N[C@H](c2cccc(C(F)(F)F)c2)C(F)F)c2cn(C3CC3)c(=O)cc2c1=O [Example 112, (R)-6-cyclopropyl-4-((2,2-difluoro-1-(3-(trifluoromethyl)phenyl)ethyl)amino)-2-methylpyrido[3,4-d]pyridazine-1,7(2H,6H)-dione]",> 10000
9,"C[C@@H](Nc1nn(C)c(=O)c2cc(=O)n(C3CC3)cc12)c1cccc(C(F)(F)CO)c1F [Example 104, (R)-6-cyclopropyl-4-((1-(3-(1,1-difluoro-2-hydroxyethyl)-2-fluorophenyl)ethyl)amino)-2-methyl-2,6-dihydropyrido[3,4-d]pyridazine-1,7-dione]",37
10,"C[C@H](Nc1nn(C)c(=O)c2cc(=O)n(C3CC3)cc12)c1cccc(C(F)(F)CO)c1F [Example 103, (S)-6-cyclopropyl-4-((1-(3-(1,1-difluoro-2-hydroxyethyl)-2-fluorophenyl)ethyl)amino)-2-methyl-2,6-dihydropyrido[3,4-d]pyridazine-1,7-dione]",7800
11,"C[C@@H](Nc1nn(C)c(=O)c2c(OCC3COC3)c(=O)n(C3(C(F)F)CC3)cc12)c1cccc(C(F)F)c1F [Example 90, (R)-4-((1-(3-(difluoromethyl)-2-fluorophenyl)ethyl)amino)-6-(1-(difluoromethyl)cyclopropyl)-2-methyl-8-(oxetan-3-ylmethoxy)-2,6-dihydropyrido[3,4-d]pyridazine-1,7-dione]",59.7
12,"COc1c(=O)n(C2CC2)cc2c(N[C@H](C)c3cccc(C(F)F)c3F)nn(C)c(=O)c12 [Example 85, (R)-6-cyclopropyl-4-((1-(3-(difluoromethyl)-2-fluorophenyl)ethyl)amino)-8-methoxy-2-methyl-2,6-dihydropyrido[3,4-d]pyridazine-1,7-dione]",192
13,"Cc1cc([C@H](C)Nc2nn(C)c(=O)c3cc(=O)n(C4CC4)cc23)cc(C(F)(F)F)c1 [Example 117, 6-cyclopropyl-2-methyl-4-[[(1S)-1-[3-methyl-5-(trifluoromethyl)phenyl]ethyl]amino]pyrido[3,4-d]pyridazine-1,7-dione]",568

# Further lines, results first:
row,IC50 [nM],SMILES
1,83,"C[C@@H](Nc1nn(C)c(=O)c2cc(=O)n(C34CNC(C3)C4)cc12)c1cccc(C(F)F)c1F [Example 145, (R)-6-(2-azabicyclo[2.1.1]hexan-4-yl)-4-((1-(3-(difluoromethyl)-2-fluorophenyl)ethyl)amino)-2-methyl-2,6-dihydropyrido[3,4-d]pyridazine-1,7-dione]"
2,2790,"CC(=O)N1CC[C@](n2cc3c(N[C@H](C)c4cccc5c(F)coc45)nn(C)c(=O)c3cc2=O)(C(F)(F)F)C1 (single isomer, unassigned) [Example 173]"
3,19.3,"C[C@@H](Nc1nn(C)c(=O)c2cc(=O)n([C@@]3(C(F)(F)F)CCOC3)cc12)c1cccc(C(F)F)c1F (single isomer, unassigned) [Example 164]"
4,13.5,"C[C@@H](Nc1nn(C)c(=O)c2cc(=O)n([C@@]3(C(F)(F)F)CCOC3)cc12)c1cccc2c1OCC2(F)F (single isomer, unassigned) [Example 168]"
5,20.1,"Cc1cnc(C(F)(F)c2cccc([C@@H](C)Nc3nn(C)c(=O)c4cc(=O)n(C5(C(F)F)CC5)cc34)c2F)cn1 [Example 176, (R)-4-((1-(3-(difluoro(5-methylpyrazin-2-yl)methyl)-2-fluorophenyl)ethyl)amino)-6-(1-(difluoromethyl)cyclopropyl)-2-methyl-2,6-dihydropyrido[3,4-d]pyridazine-1,7-dione]"
6,434,"C[C@@H](Nc1nn(C)c(=O)c2cc(=O)n([C@@H]3C[C@H]3C(F)(F)F)cc12)c1cccc(C(F)F)c1F (single isomer, unassigned) [Example 138]"
7,2440,"C[C@@H](Nc1nn(C)c(=O)c2cc(=O)n(C3CC3)cc12)c1ccc2ccccc2c1 [Example 182, (R)-6-cyclopropyl-2-methyl-4-((1-(naphthalen-2-yl)ethyl)amino)-2,6-dihydropyrido[3,4-d]pyridazine-1,7-dione]"
8,1740,"CC(=O)N1CC[C@](n2cc3c(N[C@H](C)c4cccc5c4OCC5(F)F)nn(C)c(=O)c3cc2=O)(C(F)(F)F)C1 (single isomer, unassigned) [Example 171]"
9,4490,"C[C@H](Nc1nn(C)c(=O)c2cc(=O)n(C3(C(F)F)CC3)cc12)c1cccc(C(F)(F)c2ccncc2)c1F [Example 175, (S)-4-((1-(3-(difluoro(pyridin-4-yl)methyl)-2-fluorophenyl)ethyl)amino)-6-(1-(difluoromethyl)cyclopropyl)-2-methyl-2,6-dihydropyrido[3,4-d]pyridazine-1,7-dione]"
10,70.6,"CC(=O)N1CC2(n3cc4c(N[C@H](C)c5cccc(C(F)F)c5F)nn(C)c(=O)c4cc3=O)CC1C2 [Example 146, (R)-6-(2-acetyl-2-azabicyclo[2.1.1]hexan-4-yl)-4-((1-(3-(difluoromethyl)-2-fluorophenyl)ethyl)amino)-2-methyl-2,6-dihydropyrido[3,4-d]pyridazine-1,7-dione]"
11,76,"C[C@@H](Nc1nn(C)c(=O)c2cc(=O)n(C34COC(CF)(C3)C4)cc12)c1cccc(C(F)F)c1F [Example 178, (R)-4-((1-(3-(difluoromethyl)-2-fluorophenyl)ethyl)amino)-6-(1-(fluoromethyl)-2-oxabicyclo[2.1.1]hexan-4-yl)-2-methyl-2,6-dihydropyrido[3,4-d]pyridazine-1,7-dione]"
12,159,"C[C@@H](Nc1nn(C)c(=O)c2cc(=O)n(C34CC(C(F)(F)F)(C3)C4)cc12)c1cccc(C(F)F)c1F [Example 155, (R)-4-((1-(3-(difluoromethyl)-2-fluorophenyl)ethyl)amino)-2-methyl-6-(3-(trifluoromethyl)bicyclo[1.1.1]pentan-1-yl)pyrido[3,4-d]pyridazine-1,7(2H,6H)-dione]"
13,25,"C[C@@H](Nc1nn(C)c(=O)c2cc(=O)n([C@@]34C[C@@H]3CN(C(=O)C3CC3)C4)cc12)c1cccc(C(F)F)c1F (single isomer, unassigned) [Example 141]"
14,86.9,"C[C@@H](Nc1nn(C)c(=O)c2cc(=O)n(C3(C)CN(C(=O)C4(F)CC4)C3)cc12)c1cccc(C(F)F)c1F [Example 153, (R)-4-((1-(3-(difluoromethyl)-2-fluorophenyl)ethyl)amino)-6-(1-(1-fluorocyclopropane-1-carbonyl)-3-methylazetidin-3-yl)-2-methyl-2,6-dihydropyrido[3,4-d]pyridazine-1,7-dione]"
15,262,"C[C@@H](Nc1nn(C)c(=O)c2cc(=O)n([C@]3(C(F)(F)F)CCOC3)cc12)c1cccc2c1OCC2(F)F (single isomer, unassigned) [Example 169]"
